Reference: patent US8778966B2, “Quinolinone derivatives as PARP and tank inhibitors” (Janssen Pharmaceutica, NV, priority 2007, dated 2014)

Molecular target: T1, TANK-2 enzyme (Homo sapiens, UniProt Q9H2K2)
T1 construct: made in house
T1 sequence (Q9H2K2 1-1166): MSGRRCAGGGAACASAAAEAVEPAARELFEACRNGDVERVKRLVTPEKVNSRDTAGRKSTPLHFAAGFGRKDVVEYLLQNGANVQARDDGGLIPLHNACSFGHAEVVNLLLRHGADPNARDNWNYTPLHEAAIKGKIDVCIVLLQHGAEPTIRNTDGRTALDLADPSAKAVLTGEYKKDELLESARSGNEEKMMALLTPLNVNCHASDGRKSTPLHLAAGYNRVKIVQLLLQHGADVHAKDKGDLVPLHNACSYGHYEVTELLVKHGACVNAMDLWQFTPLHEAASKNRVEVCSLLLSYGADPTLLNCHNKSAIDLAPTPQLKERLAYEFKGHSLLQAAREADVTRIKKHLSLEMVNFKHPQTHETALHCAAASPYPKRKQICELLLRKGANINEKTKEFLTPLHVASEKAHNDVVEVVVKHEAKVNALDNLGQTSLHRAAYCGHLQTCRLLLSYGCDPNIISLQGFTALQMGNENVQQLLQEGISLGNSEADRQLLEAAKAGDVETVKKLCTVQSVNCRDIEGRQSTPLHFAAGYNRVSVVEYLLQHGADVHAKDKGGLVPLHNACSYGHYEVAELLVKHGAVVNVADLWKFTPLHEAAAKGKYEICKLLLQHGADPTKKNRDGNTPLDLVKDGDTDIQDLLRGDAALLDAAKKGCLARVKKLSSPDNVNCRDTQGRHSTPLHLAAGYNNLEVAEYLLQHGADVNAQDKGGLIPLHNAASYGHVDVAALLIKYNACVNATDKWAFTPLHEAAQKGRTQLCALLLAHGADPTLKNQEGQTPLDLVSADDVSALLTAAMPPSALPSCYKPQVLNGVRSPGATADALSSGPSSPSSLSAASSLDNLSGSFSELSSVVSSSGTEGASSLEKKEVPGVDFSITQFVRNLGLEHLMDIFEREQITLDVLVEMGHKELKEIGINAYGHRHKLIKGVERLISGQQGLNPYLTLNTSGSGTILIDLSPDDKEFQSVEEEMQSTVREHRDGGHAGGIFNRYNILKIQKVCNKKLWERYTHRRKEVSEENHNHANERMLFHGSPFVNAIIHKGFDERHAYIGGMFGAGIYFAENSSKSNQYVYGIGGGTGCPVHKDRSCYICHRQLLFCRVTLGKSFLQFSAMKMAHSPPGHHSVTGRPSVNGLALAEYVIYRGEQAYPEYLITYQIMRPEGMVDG
Test: In vitro Scintillation Proximity Assay (SPA) for TANK-2 inhibitory activity
Type: biochemical
Conditions: read-out: in vitro SPA assay TANK-2 pIC50 (converted)
Method in brief: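 Results are pIC50 values, with IC50 interpolated linearly around 50% of blank-subtracted control cpm. They come from a scintillation proximity read of TANK-2 (8 μg/ml) self-modification with [3H]-NAD+/NAD, incubated 120 min at room temperature in pH 7.4 Tris buffer containing MgCl2 and DTT. Compounds were first screened at 10^−5 M.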

Row | Structure (SMILES) | IC50 [nM]
1 | CCc1cc2ccc(C(C)(C#N)Cc3cccc(N4CCCC4)n3)cc2[nH]c1=O (centres unmarked) [Compound 226] | 200
2 | CCc1cc2ccc(C(C#N)(CC)Cc3nc(C#N)cc(OC)n3)cc2[nH]c1=O (centres unmarked) [Compound 316] | 126
3 | CCc1cc2ccc(C(C)(C#N)Cc3cccc(C4(N)CC4)c3)cc2[nH]c1=O (centres unmarked) [Compound 180] | 158
4 | CCc1cc2ccc(C(C)(C#N)Cc3ccnc(C#N)c3)cc2[nH]c1=O (centres unmarked) [Compound 324] | 20
5 | CCc1cc2ccc(C(C)(C#N)C3CCc4ccc(Br)cc43)cc2[nH]c1=O (single isomer, unassigned) [Compound 381] | 1260
6 | Cc1cc2ccc(C(C)(C#N)Cc3cc(F)cc(F)c3)cc2[nH]c1=O (centres unmarked) [Compound 282] | 794
7 | CCc1cc2ccc([C@](C)(C#N)C[C@H]3CCc4ccccc4O3)cc2[nH]c1=O (single isomer, unassigned) [Compound 396] | 158
8 | CCc1cc2ccc(C(C)(C#N)Cc3ccnc(Cl)c3)cc2[nH]c1=O (centres unmarked) [Compound 341] | 79.4
9 | CCc1cc2ccc(C(C#N)(CC)Cc3cccc(OC)c3)cc2[nH]c1=O (centres unmarked) [Compound 287] | 1000
10 | Cc1cc2ccc([C@@](C)(C#N)[C@H]3CCc4cc(Br)ccc43)cc2[nH]c1=O [Compound 241] | 6310
11 | CCc1cc2ccc(C(C)(C#N)Cc3cccc(F)n3)cc2[nH]c1=O (centres unmarked) [Compound 331] | 79.4
12 | Cc1cc2ccc(C(C)(C#N)C3CCc4c(C#N)cccc43)cc2[nH]c1=O (racemic) [Compound 393] | 794
13 | CCc1cc2ccc(C(C)(C#N)Cc3cccc(-c4ccccc4)c3)cc2[nH]c1=O (centres unmarked) [Compound 18] | 251
14 | CCc1cc2cc(C)c(C(C)(C#N)Cc3cccc(C#N)n3)cc2[nH]c1=O (centres unmarked) [Compound 208] | 39.8
15 | CCOc1cc(C#N)nc(CC(C)(C#N)c2ccc3cc(CC)c(=O)[nH]c3c2)n1 (centres unmarked) [Compound 315] | 100
16 | Cc1cc2ccc(C(C)(C#N)Cc3cccc(Oc4ccccc4)n3)cc2[nH]c1=O (centres unmarked) [Compound 193] | 631
17 | CCc1cc2ccc(C(C#N)(CC)Cc3cccc(F)c3)cc2[nH]c1=O (centres unmarked) [Compound 270] | 316
18 | Cc1cc2ccc(C(C)(C#N)Cc3cccc(C#N)n3)cc2[nH]c1=O (centres unmarked) [Compound 227] | 316
19 | CCc1cc2ccc(C(C)(C#N)Cc3cccc(N(C)C)c3)cc2[nH]c1=O (centres unmarked) [Compound 20] | 63.1
20 | CCc1cc2ccc(C(C)(C#N)Cc3cc(F)cc(C#N)c3)cc2[nH]c1=O (centres unmarked) [Compound 266] | 25.1
21 | CCc1cc2ccc(C(C)(C#N)Cc3cc(C)nc(C#N)c3)cc2[nH]c1=O (centres unmarked) [Compound 328] | 20
22 | CCc1cc2ccc(C(C)(C#N)Cc3ccc(OC)nc3Cl)cc2[nH]c1=O (centres unmarked) [Compound 224] | 200

Row | Structure (SMILES) | IC50 [nM]
23 | Cc1cc2ccc([C@@](C)(C#N)[C@@H]3CCCc4ccccc43)cc2[nH]c1=O [Compound 382] | 2000
24 | CCc1cc2ccc(C(C)(C#N)Cc3cc(C)cc(Br)c3)cc2[nH]c1=O (centres unmarked) [Compound 284] | 501
25 | Cc1cc2ccc([C@@](C)(C#N)[C@H]3CCc4ccc(Br)cc43)cc2[nH]c1=O [Compound 405] | 5010
26 | CCc1cc2ccc(C(C)(C#N)Cc3ccc(Cl)nc3Cl)cc2[nH]c1=O (centres unmarked) [Compound 212] | 126
27 | CCc1cc2ccc(C(C)(C#N)CCOc3nccc(OC)n3)cc2[nH]c1=O (centres unmarked) [Compound 223] | 794
28 | CCc1cc2ccc(C(C)(C#N)CCCN(C)C(=O)c3ccc(F)cc3)cc2[nH]c1=O (centres unmarked) [Compound 188] | 20
29 | Cc1cc2ccc([C@@](C)(C#N)[C@@H]3CCc4cc(Br)ccc43)cc2[nH]c1=O [Compound 240] | 6310
30 | CCc1cc2ccc(C(C)(C#N)Cc3cc(C)cc(C#N)c3)cc2[nH]c1=O (centres unmarked) [Compound 174] | 200
31 | CCc1cc2ccc(C(C)(C#N)Cc3cc4ccccc4nn3)cc2[nH]c1=O (centres unmarked) [Compound 238] | 251
32 | CCc1cc2ccc(C(C)(C#N)Cc3cc(F)cc(F)c3)cc2[nH]c1=O (centres unmarked) [Compound 402] | 126
33 | COc1cc2ccc(C(C)(C#N)Cc3cccc(C#N)n3)cc2[nH]c1=O (centres unmarked) [Compound 218] | 1000
34 | Cc1cc2ccc(C(C)(C#N)Cc3cccc(Oc4ncccn4)c3)cc2[nH]c1=O (centres unmarked) [Compound 191] | 1580
35 | CCc1cc2ccc(C(C#N)(CC)C3CCc4ccc(OC)cc43)cc2[nH]c1=O (centres unmarked) [Compound 403] | 2510
36 | CCc1cc2ccc(C(C)(C#N)CN3CCN(c4ncc(Br)cn4)CC3)cc2[nH]c1=O (centres unmarked) [Compound 374] | 501
37 | CCc1cc2ccc(C(C)(C#N)CN3CCc4ccccc4C3)cc2[nH]c1=O (centres unmarked) [Compound 376] | 200
38 | CCOc1cc(N(C)C)nc(CC(C)(C#N)c2ccc3cc(CC)c(=O)[nH]c3c2)n1 (centres unmarked) [Compound 312] | 100
39 | CCc1cc2ccc(C(C)(C#N)CCOc3ccnc(SC)n3)cc2[nH]c1=O (centres unmarked) [Compound 348] | 200
40 | Cc1cc2ccc(C(C)(C#N)C3CCc4c(Br)cccc43)cc2[nH]c1=O (centres unmarked) [Compound 248] | 1260
41 | CCc1cc2ccc(C(C)(C#N)Cc3ccc(Cl)nc3OC)cc2[nH]c1=O (centres unmarked) [Compound 225] | 126
42 | CCc1cc2ccc(C(C)(C#N)Cc3ccc(C(F)(F)F)nc3C)cc2[nH]c1=O (centres unmarked) [Compound 340] | 794
43 | CCc1cc2ccc(C(C#N)(CC)Cc3cccc(CN)c3)cc2[nH]c1=O (centres unmarked) [Compound 390] | 316
44 | CCC(=O)c1cccc(CC(C)(C#N)c2ccc3cc(C)c(=O)[nH]c3c2)c1 (centres unmarked) [Compound 173] | 1260

Row | Structure (SMILES) | IC50 [nM]
45 | Cc1cc2ccc([C@](C)(C#N)[C@@H]3CCc4ccc(Br)cc43)cc2[nH]c1=O [Compound 406] | 5010
46 | Cc1cc2ccc([C@](C)(C#N)[C@H]3CCc4ccc(Br)cc43)cc2[nH]c1=O [Compound 407] | 6310
47 | CCc1cc2ccc(C(C)(C#N)Cc3nc(C)cc(OC)n3)cc2[nH]c1=O (centres unmarked) [Compound 371] | 126
48 | CCc1cc2ccc(C(C)(C#N)C3CCc4ccc(Br)cc43)cc2[nH]c1=O (single isomer, unassigned) [Compound 380] | 2510
49 | Cc1cc2ccc(C(C)(C#N)C3CCc4ccc(Br)cc43)cc2[nH]c1=O (centres unmarked) [Compound 249] | 2510
50 | Cc1cc2ccc(C(C)(C#N)C3CCc4ccc(C#N)cc43)cc2[nH]c1=O (centres unmarked) [Compound 250] | 398
51 | CCc1cc2ccc(C(C)(C#N)Cc3cccc(O)c3)cc2[nH]c1=O (centres unmarked) [Compound 22] | 50.1
52 | CCc1cc2ccc(C(C#N)(CC)Cc3cccc(C#N)c3)cc2[nH]c1=O (centres unmarked) [Compound 265] | 100
53 | Cc1cc2ccc(C(C)(C#N)CCCCOc3ccccc3)cc2[nH]c1=O (centres unmarked) [Compound 272] | 501
54 | CCc1cc2ccc([C@@](C)(C#N)[C@H]3CCOc4ccccc43)cc2[nH]c1=O (single isomer, unassigned) [Compound 395] | 501
55 | CCc1cc2ccc(C(C)(C#N)Cc3cc(OC)cc(OC)n3)cc2[nH]c1=O (centres unmarked) [Compound 232] | 63.1
56 | CCc1cc2ccc(C(C)(C#N)CC3Oc4ccccc4O3)cc2[nH]c1=O (centres unmarked) [Compound 398] | 501
57 | Cc1cc2ccc(C(C)(C#N)Cc3cccc(Oc4ccccn4)c3)cc2[nH]c1=O (centres unmarked) [Compound 304] | 1000
58 | CCc1cc2ccc(C(C)(C#N)Cc3cc(C#N)cc4c3OCC4)cc2[nH]c1=O (centres unmarked) [Compound 236] | 31.6
59 | CCc1cc2ccc([C@](C)(C#N)CN(C)Cc3ccc(C#N)cc3)cc2[nH]c1=O [Compound 190] | 251
60 | CCc1cc2ccc(C(C)(C#N)Cc3cccc(OCCOC)c3)cc2[nH]c1=O (centres unmarked) [Compound 24] | 79.4
61 | CCc1cc2ccc(C(C)(C#N)Cc3cccc(OCc4ccccc4)c3)cc2[nH]c1=O (centres unmarked) [Compound 23] | 200
62 | CCc1cc2ccc(C(C)(C#N)Cc3cc(C)nc(Cl)c3)cc2[nH]c1=O (centres unmarked) [Compound 326] | 398
63 | CCc1cc2ccc(C(C#N)(CC)Cc3nc(OC)cc(OC)n3)cc2[nH]c1=O (centres unmarked) [Compound 321] | 158
64 | CCc1cc2ccc([C@](C)(C#N)C[C@H]3Cc4ccccc4O3)cc2[nH]c1=O [Compound 397] | 100
65 | CCc1cc2ccc(C(C)(C#N)CN(C)CCc3cn(C)c4ccccc34)cc2[nH]c1=O (centres unmarked) [Compound 303] | 126
